Results as given in ChEMBL document CHEMBL3044934, “Design, synthesis, and antiviral evaluation of phenanthrene-based tylophorine derivatives as potential antiviral agents” (2010).

Key:
Format in all cases: functional
Tobacco mosaic virus [1] = experiment: Antiviral activity against Tobacco mosaic virus (TMV) inoculated on whole Nicotiana tabacum leaves followed by smearing with 500 ug/mL compound solution on left side of leaves assessed as viral infection curative effect measured 3 to 4 days post viral infection
Tobacco mosaic virus [2] = experiment: Antiviral activity against Tobacco mosaic virus (TMV) pre-treated with 500 ug/mL compound for 30 min followed by inoculation on left side of Nicotiana tabacum leaves assessed as virus inactivation effect measured 3 to 4 days post viral infection
Tobacco mosaic virus [3] = experiment: Antiviral activity against Tobacco mosaic virus (TMV) inoculated on whole Nicotiana tabacum leaves followed by smearing with 100 ug/mL compound solution on left side of leaves assessed as viral infection curative effect measured 3 to 4 days post viral infection
Tobacco mosaic virus [4] = experiment: Antiviral activity against Tobacco mosaic virus (TMV) inoculated on 500 ug/mL compound smeared Nicotiana tabacum leaves assessed as protective effect against viral infection measured 3 to 4 days post viral infection
Tobacco mosaic virus [5] = experiment: Antiviral activity against Tobacco mosaic virus (TMV) inoculated on 100 ug/mL compound smeared Nicotiana tabacum leaves assessed as protective effect against viral infection measured 3 to 4 days post viral infection
Tobacco mosaic virus [6] = experiment: Antiviral activity against Tobacco mosaic virus (TMV) pre-treated with 100 ug/mL compound for 30 min followed by inoculation on left side of Nicotiana tabacum leaves assessed as virus inactivation effect measured 3 to 4 days post viral infection

Structure (SMILES) | Activity (Tobacco mosaic virus [1]) [%] | Activity (Tobacco mosaic virus [2]) [%] | Activity (Tobacco mosaic virus [3]) [%] | Activity (Tobacco mosaic virus [4]) [%] | Activity (Tobacco mosaic virus [5]) [%] | Activity (Tobacco mosaic virus [6]) [%]
COC(=O)[C@@H]1CCCN1Cc1cc2cc(OC)c(OC)cc2c2cc(OC)c(OC)cc12 | 33.7 | 80 | 2.9 | 47.1 | 38.3 | 54.7
COC(=O)[C@@H]1CCCN1C(=O)c1cc2cc(OC)c(OC)cc2c2cc(OC)c(OC)cc12 | 64.6 | 8.4 | 10.6 | 56.7 | 19.2 | 8
COc1cc2cc(CN3CCC[C@H]3C(=O)O)c3cc(OC)c(OC)cc3c2cc1OC | 54.1 | 39.6 | 14.2 | 35.4 | 23.3 | 21.3
COC(=O)C1CCCCN1Cc1cc2cc(OC)c(OC)cc2c2cc(OC)c(OC)cc12 (stereo not drawn) | 11.8 | 59.1 | 1.2 | 64.6 | 27.1 | 50.2
COc1cc2cc(CN3CCCCC3CO)c3cc(OC)c(OC)cc3c2cc1OC (stereo not drawn) | 46.8 | 8.4 | 36.2 | 21.3 | 4.6 | 5.2
COC(=O)C1CCCCN1C(=O)c1cc2cc(OC)c(OC)cc2c2cc(OC)c(OC)cc12 (stereo not drawn) | 17.9 | 17.3 | 4.9 | 56.3 | 12.5 | 4.4
COc1cc2cc(CN3CCCCC3C(=O)O)c3cc(OC)c(OC)cc3c2cc1OC (stereo not drawn) | 45.1 | 68.9 | 28.9 | 12.9 | 10 | 38.7
COc1cc2cc(CN3CCC[C@H]3CO)c3cc(OC)c(OC)cc3c2cc1OC | 34.6 | 74.2 | 13.4 | 19.2 | 10.4 | 36.9
COc1cc2cc(CN3CCC(O)CC3)c3cc(OC)c(OC)cc3c2cc1OC | 37.4 | 71.1 | 33.7 | 70.8 | 11.3 | 9.3
COC(=O)CCCCCNC(=O)c1cc2cc(OC)c(OC)cc2c2cc(OC)c(OC)cc12 | 65.9 | 6.7 | 48 | 54.6 | 14.2 | 5.8
CNCC(=O)N[C@@H](CO)C(=O)N[C@H]1[C@H](O)[C@@H](O)[C@H](n2ccc(N)nc2=O)O[C@@H]1C(N)=O [NINGNANMYCIN] | 47.9 | 68.4 | 39 | 48.7 | 47.5 | 48
COc1cc2cc(C(=O)NCCCCCCO)c3cc(OC)c(OC)cc3c2cc1OC | 65 | 60.9 | 49.6 | 41.7 | 22.5 | 57.8
COc1cc2c3c(c4cc(OC)c(OC)cc4c2cc1OC)CN1CCC[C@@H]1C3 [TYLOPHORINE] | 65.9 | 62.6 | 57.7 | 53.3 | 37.9 | 56.4
